What was measured:
corn = experiment: Test C preemergence/postemergence greenhouse plant response rating 0 to 100; format: in vivo, Zea mays; conditions: for Plant response rating, Corn: 125 g/ha, 0 to 100 scale
Summary of the method: (§1)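 Compounds in non-phytotoxic solvent went onto sandy loam before emergence (seeded one day earlier) or onto plants at the one-to-four leaf stage. Duck salad was treated via flood water (~2.5 cm, maintained) over silt loam.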

soybean [1] = experiment: Test B preemergence/postemergence greenhouse plant response rating 0 to 10; format: in vivo, Glycine max; conditions: 0 to 10 scale
Summary of the method: (§2)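 Planted seeds are treated preemergence with compound dissolved in a non-phytotoxic solvent, while postemergence applications go onto plants of two to eighteen cm. Plants stay in the greenhouse twelve to sixteen days and are then rated visually relative to controls.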

cotton = experiment: as above; format: in vivo, Gossypium hirsutum; conditions: 0 to 10 scale
Summary of the method: as §2

rape = experiment: Test C preemergence/postemergence greenhouse plant response rating 0 to 100; format: in vivo, Brassica napus; conditions: for Plant response rating, Rape: 125 g/ha, 0 to 100 scale
Summary of the method: as §1

barley = experiment: as above; format: in vivo, Hordeum vulgare; conditions: for Plant response rating Barley Igri: 125 g/ha, 0 to 100 scale
Summary of the method: as §1

sugar beet = experiment: as above; format: in vivo, Beta vulgaris; conditions: for Plant response rating, Sugar beet: 125 g/ha, 0 to 100 scale
Summary of the method: as §1

velvetleaf [2] = experiment: Test B preemergence/postemergence greenhouse plant response rating 0 to 10; format: in vivo, Abutilon theophrasti; conditions: 0 to 10 scale
Summary of the method: as §2

purple nutsedge = experiment: as above; format: in vivo, Cyperus rotundus; conditions: 0 to 10 scale
Summary of the method: as §2

cheatgrass = experiment: as above; format: in vivo, Bromus secalinus; conditions: 0 to 10 scale
Summary of the method: as §2

morningglory = experiment: Test C preemergence/postemergence greenhouse plant response rating 0 to 100; format: in vivo, Ipomoea hederacea; conditions: for Plant response rating, Morningglory: 125 g/ha, 0 to 100 scale
Summary of the method: as §1

umbrella sedge = experiment: Test C flood test plant response rating 0 to 100; format: in vivo, Cyperus difformis
Summary of the method: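 Compounds in non-phytotoxic solvent applied preemergence to sandy loam one day after planting, postemergence at the 1–4 leaf stage, or to ~2.5 cm floodwater over silt loam.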

wild buckwheat = experiment: Test B preemergence/postemergence greenhouse plant response rating 0 to 10; format: in vivo, Polygonum convolvulus; conditions: 0 to 10 scale
Summary of the method: as §2

rice = experiment: as above; format: in vivo, Oryza sativa; conditions: 0 to 10 scale
Summary of the method: as §2

lambsquarters [3] = experiment: Test C preemergence/postemergence greenhouse plant response rating 0 to 100; format: in vivo, Chenopodium album; conditions: PREEMERGENCE
Summary of the method: as §1

sorghum = experiment: as above; format: in vivo, Sorghum bicolor; conditions: for Plant response rating, Sorghum: 125 g/ha, 0 to 100 scale
Summary of the method: as §1

lambsquarters [4] = experiment: Test B preemergence/postemergence greenhouse plant response rating 0 to 10; format: in vivo, Chenopodium album; conditions: 0 to 10 scale
Summary of the method: as §2

velvetleaf [5] = experiment: Test C preemergence/postemergence greenhouse plant response rating 0 to 100; format: in vivo, Abutilon theophrasti; conditions: for Plant response rating, Velvetleaf: 125 g/ha, 0 to 100 scale
Summary of the method: as §1

soybean [6] = experiment: as above; format: in vivo, Glycine max; conditions: for Plant response rating, Soybean: 125 g/ha, 0 to 100 scale
Summary of the method: as §1

Fc1cc(Cl)ccc1-c1nn2c(c1Br)CCCC2 [Compound 52]
8: Plant response rating, Soybean (soybean [1]; Rate 200 g/ha, POSTEMERGENCE) | Plant response rating, Velvetleaf (velvetleaf [2]; PREEMERGENCE, Rate 50 g/ha)
60: Plant response rating, Rape (rape; PREEMERGENCE) | Plant response rating, Sorghum (sorghum; POSTEMERGENCE)
30: Plant response rating (0 to 100), Corn (corn; Rate 8 g/ha, POSTEMERGENCE) | Plant response rating (0 to 100), Morningglory (morningglory; Rate 8 g/ha, POSTEMERGENCE) | Plant response rating (0 to 100), Sorghum (sorghum; POSTEMERGENCE, Rate 2 g/ha) | Plant response rating (0 to 100), Velvetleaf (velvetleaf [5]; Rate 8 g/ha, PREEMERGENCE) | Plant response rating (0 to 100), Soybean (soybean [6]; Rate 8 g/ha, POSTEMERGENCE)
90: Plant response rating (0 to 100), Velvetleaf (velvetleaf [5]; Rate 8 g/ha, POSTEMERGENCE)
70: Plant response rating (0 to 100), Rape (rape; Rate 31 g/ha, POSTEMERGENCE) | Plant response rating (0 to 100), Sugar beet (sugar beet; POSTEMERGENCE, Rate 2 g/ha) | Plant response rating (0 to 100), Sugar beet (sugar beet; Rate 8 g/ha, POSTEMERGENCE) | Plant response rating (0 to 100), Sugar beet (sugar beet; Rate 31 g/ha, PREEMERGENCE) | Plant response rating, Soybean (soybean [6]; POSTEMERGENCE)
10: Plant response rating, Soybean (soybean [1]; POSTEMERGENCE, Rate 50 g/ha) | Plant response rating, Cotton (cotton; POSTEMERGENCE, Rate 50 g/ha) | Plant response rating, Cotton (cotton; POSTEMERGENCE, Rate 200 g/ha) | Plant response rating (0 to 100), Rape (rape; POSTEMERGENCE, Rate 2 g/ha) | Plant response rating (0 to 100), Rape (rape; Rate 31 g/ha, PREEMERGENCE) | Plant response rating (0 to 100), Barley Igri (barley; POSTEMERGENCE, Rate 2 g/ha) | Plant response rating Barley Igri (barley; PREEMERGENCE) | Plant response rating, Velvetleaf (velvetleaf [2]; Rate 200 g/ha, POSTEMERGENCE) | Plant response rating, Velvetleaf (velvetleaf [2]; Rate 200 g/ha, PREEMERGENCE) | Plant response rating, Cheatgrass (cheatgrass; Rate 200 g/ha, PREEMERGENCE) | Plant response rating (0 to 100), Umbrella sedge (umbrella sedge; POSTEMERGENCE section, flood test, Rate 2 g/ha) | Plant response rating, Wild buckwheat (wild buckwheat; POSTEMERGENCE, Rate 50 g/ha) | Plant response rating, Wild buckwheat (wild buckwheat; Rate 200 g/ha, POSTEMERGENCE) | Plant response rating, Wild buckwheat (wild buckwheat; Rate 200 g/ha, PREEMERGENCE) | Plant response rating, Sorghum (sorghum; PREEMERGENCE) | Plant response rating, Lambsquarter (lambsquarters [4]; PREEMERGENCE, Rate 50 g/ha) | Plant response rating, Lambsquarter (lambsquarters [4]; Rate 200 g/ha, POSTEMERGENCE) | Plant response rating, Lambsquarter (lambsquarters [4]; Rate 200 g/ha, PREEMERGENCE) | Plant response rating (0 to 100), Soybean (soybean [6]; POSTEMERGENCE, Rate 2 g/ha)
20: Plant response rating (0 to 100), Corn (corn; POSTEMERGENCE, Rate 2 g/ha) | Plant response rating (0 to 100), Barley Igri (barley; Rate 8 g/ha, POSTEMERGENCE) | Plant response rating (0 to 100), Morningglory (morningglory; POSTEMERGENCE, Rate 2 g/ha) | Plant response rating (0 to 100), Umbrella sedge (umbrella sedge; Rate 8 g/ha, under POSTEMERGENCE head (flood test species))
9: Plant response rating, Velvetleaf (velvetleaf [2]; POSTEMERGENCE, Rate 50 g/ha) | Plant response rating, Lambsquarter (lambsquarters [4]; POSTEMERGENCE, Rate 50 g/ha)
3: Plant response rating, Cotton (cotton; Rate 200 g/ha, PREEMERGENCE) | Plant response rating, Nutsedge (purple nutsedge; POSTEMERGENCE, Rate 50 g/ha)
25: Plant response rating (0 to 100), Umbrella sedge (umbrella sedge; Rate 31 g/ha, under POSTEMERGENCE head (flood test species))
5: Plant response rating, Nutsedge (purple nutsedge; Rate 200 g/ha, POSTEMERGENCE)
1: Plant response rating, Rice (rice; Rate 200 g/ha, PREEMERGENCE)
80: Plant response rating Umbrella sedge (umbrella sedge; flood test species listed under POSTEMERGENCE, 125 g/ha, 0 to 100 scale)
4: Plant response rating, Cheatgrass (cheatgrass; POSTEMERGENCE, Rate 50 g/ha) | Plant response rating, Rice (rice; POSTEMERGENCE, Rate 50 g/ha)
40: Plant response rating (0 to 100), Corn (corn; Rate 31 g/ha, POSTEMERGENCE) | Plant response rating (0 to 100), Rape (rape; Rate 8 g/ha, POSTEMERGENCE) | Plant response rating (0 to 100), Barley Igri (barley; Rate 31 g/ha, POSTEMERGENCE) | Plant response rating (0 to 100), Sorghum (sorghum; Rate 8 g/ha, POSTEMERGENCE) | Plant response rating (0 to 100), Soybean (soybean [6]; Rate 31 g/ha, POSTEMERGENCE)
50: Plant response rating, Corn (corn; POSTEMERGENCE) | Plant response rating Barley Igri (barley; POSTEMERGENCE) | Plant response rating (0 to 100), Morningglory (morningglory; Rate 31 g/ha, POSTEMERGENCE) | Plant response rating (0 to 100), Lambsquarters (lambsquarters [3]; Rate 31 g/ha) | Plant response rating (0 to 100), Sorghum (sorghum; Rate 31 g/ha, POSTEMERGENCE) | Plant response rating (0 to 100), Velvetleaf (velvetleaf [5]; POSTEMERGENCE, Rate 2 g/ha)
100: Plant response rating, Rape (rape; POSTEMERGENCE) | Plant response rating, Sugar beet (sugar beet; POSTEMERGENCE) | Plant response rating, Sugar beet (sugar beet; PREEMERGENCE) | Plant response rating (0 to 100), Sugar beet (sugar beet; Rate 31 g/ha, POSTEMERGENCE) | Plant response rating, Morningglory (morningglory; POSTEMERGENCE) | Plant response rating Lambsquarters (lambsquarters [3]; 125 g/ha, 0 to 100 scale) | Plant response rating, Velvetleaf (velvetleaf [5]; POSTEMERGENCE) | Plant response rating, Velvetleaf (velvetleaf [5]; PREEMERGENCE) | Plant response rating (0 to 100), Velvetleaf (velvetleaf [5]; Rate 31 g/ha, POSTEMERGENCE) | Plant response rating (0 to 100), Velvetleaf (velvetleaf [5]; Rate 31 g/ha, PREEMERGENCE)
0: Plant response rating, Corn (corn; PREEMERGENCE) | Plant response rating (0 to 100), Corn (corn; PREEMERGENCE, Rate 2 g/ha) | Plant response rating (0 to 100), Corn (corn; Rate 8 g/ha, PREEMERGENCE) | Plant response rating (0 to 100), Corn (corn; Rate 31 g/ha, PREEMERGENCE) | Plant response rating, Soybean (soybean [1]; PREEMERGENCE, Rate 50 g/ha) | Plant response rating, Soybean (soybean [1]; Rate 200 g/ha, PREEMERGENCE) | Plant response rating, Cotton (cotton; PREEMERGENCE, Rate 50 g/ha) | Plant response rating (0 to 100), Rape (rape; PREEMERGENCE, Rate 2 g/ha) | Plant response rating (0 to 100), Rape (rape; Rate 8 g/ha, PREEMERGENCE) | Plant response rating (0 to 100), Barley Igri (barley; PREEMERGENCE, Rate 2 g/ha) | Plant response rating (0 to 100), Barley Igri (barley; Rate 8 g/ha, PREEMERGENCE) | Plant response rating (0 to 100), Barley Igri (barley; Rate 31 g/ha, PREEMERGENCE) | Plant response rating (0 to 100), Sugar beet (sugar beet; PREEMERGENCE, Rate 2 g/ha) | Plant response rating (0 to 100), Sugar beet (sugar beet; Rate 8 g/ha, PREEMERGENCE) | Plant response rating, Nutsedge (purple nutsedge; PREEMERGENCE, Rate 50 g/ha) | Plant response rating, Nutsedge (purple nutsedge; Rate 200 g/ha, PREEMERGENCE) | Plant response rating, Morningglory (morningglory; PREEMERGENCE) | Plant response rating (0 to 100), Morningglory (morningglory; PREEMERGENCE, Rate 2 g/ha) | Plant response rating (0 to 100), Morningglory (morningglory; Rate 8 g/ha, PREEMERGENCE) | Plant response rating (0 to 100), Morningglory (morningglory; Rate 31 g/ha, PREEMERGENCE) | Plant response rating, Rice (rice; PREEMERGENCE, Rate 50 g/ha) | Plant response rating (0 to 100), Lambsquarters (lambsquarters [3]; Rate 2 g/ha) | Plant response rating (0 to 100), Lambsquarters (lambsquarters [3]; Rate 8 g/ha) | Plant response rating (0 to 100), Sorghum (sorghum; PREEMERGENCE, Rate 2 g/ha) | Plant response rating (0 to 100), Sorghum (sorghum; Rate 8 g/ha, PREEMERGENCE) | Plant response rating (0 to 100), Sorghum (sorghum; Rate 31 g/ha, PREEMERGENCE) | Plant response rating (0 to 100), Velvetleaf (velvetleaf [5]; PREEMERGENCE, Rate 2 g/ha) | Plant response rating, Soybean (soybean [6]; PREEMERGENCE) | Plant response rating (0 to 100), Soybean (soybean [6]; PREEMERGENCE, Rate 2 g/ha) | Plant response rating (0 to 100), Soybean (soybean [6]; Rate 8 g/ha, PREEMERGENCE) | Plant response rating (0 to 100), Soybean (soybean [6]; Rate 31 g/ha, PREEMERGENCE)
6: Plant response rating, Cheatgrass (cheatgrass; PREEMERGENCE, Rate 50 g/ha) | Plant response rating, Rice (rice; Rate 200 g/ha, POSTEMERGENCE)
7: Plant response rating, Cheatgrass (cheatgrass; POSTEMERGENCE, Rate 200 g/ha) | Plant response rating, Wild buckwheat (wild buckwheat; PREEMERGENCE, Rate 50 g/ha)

Source: patent publication US6358885B1, “Substituted phenylheterocyclic herbicides” (Mississippi State University, priority 1992, dated 2002)
